Key:
db/db mouse = assay: Diabetic nephropathy animal model, db/db mouse (fasting serum glucose, kidney weight, proteinuria); assay type: in vivo; details: 300 mg/kg orally daily for 2 weeks
Protocol: (§1) An effect of DHTS, which is the representative material of the TENC1 inhibitors found through the screening described in Example 5, was identified using a diabetic nephropathy animal model. To this end, as a diabetic nephropathy animal model, a type II diabetic model, that is, a db/db mouse was used, and as a control, a db/m mouse was used. 10 week-old male db/m and db/db mice were divided into three groups including a group in which a vehicle was administered to a db/m mouse, a group in which a vehicle was administered to a db/db mouse, and a group in which 300 mg/kg of DHTS was administered to a db/db mouse for experiments, and the vehicle or drug was orally administered daily for 2 weeks according to each condition. As the vehicle, 1% carboxymethyl cellulose was used.
First, after the experiment described above, blood was taken from a mouse to measure a fasting serum glucose level. As a result, referring to FIG. 9, it was confirmed that the fasting serum glucose level was not decreased by the administration of DHTS for two weeks.
Therefore, it was confirmed that DHTS can improve the renal hypertrophy.

TENC1 = target: T1, TENC1 (Homo sapiens, UniProt Q63HR2, P1246L); assay: Malachite Green assay screening for TENC1 inhibitor (PTPase activity of TENC1); assay type: biochemical; details: TENC1 protein isolated from cells, compared with control; FIG. 8
T1 construct: made in house; host or cells: cells (type not specified)
T1 sequence (Q63HR2 1-1409 P1246L): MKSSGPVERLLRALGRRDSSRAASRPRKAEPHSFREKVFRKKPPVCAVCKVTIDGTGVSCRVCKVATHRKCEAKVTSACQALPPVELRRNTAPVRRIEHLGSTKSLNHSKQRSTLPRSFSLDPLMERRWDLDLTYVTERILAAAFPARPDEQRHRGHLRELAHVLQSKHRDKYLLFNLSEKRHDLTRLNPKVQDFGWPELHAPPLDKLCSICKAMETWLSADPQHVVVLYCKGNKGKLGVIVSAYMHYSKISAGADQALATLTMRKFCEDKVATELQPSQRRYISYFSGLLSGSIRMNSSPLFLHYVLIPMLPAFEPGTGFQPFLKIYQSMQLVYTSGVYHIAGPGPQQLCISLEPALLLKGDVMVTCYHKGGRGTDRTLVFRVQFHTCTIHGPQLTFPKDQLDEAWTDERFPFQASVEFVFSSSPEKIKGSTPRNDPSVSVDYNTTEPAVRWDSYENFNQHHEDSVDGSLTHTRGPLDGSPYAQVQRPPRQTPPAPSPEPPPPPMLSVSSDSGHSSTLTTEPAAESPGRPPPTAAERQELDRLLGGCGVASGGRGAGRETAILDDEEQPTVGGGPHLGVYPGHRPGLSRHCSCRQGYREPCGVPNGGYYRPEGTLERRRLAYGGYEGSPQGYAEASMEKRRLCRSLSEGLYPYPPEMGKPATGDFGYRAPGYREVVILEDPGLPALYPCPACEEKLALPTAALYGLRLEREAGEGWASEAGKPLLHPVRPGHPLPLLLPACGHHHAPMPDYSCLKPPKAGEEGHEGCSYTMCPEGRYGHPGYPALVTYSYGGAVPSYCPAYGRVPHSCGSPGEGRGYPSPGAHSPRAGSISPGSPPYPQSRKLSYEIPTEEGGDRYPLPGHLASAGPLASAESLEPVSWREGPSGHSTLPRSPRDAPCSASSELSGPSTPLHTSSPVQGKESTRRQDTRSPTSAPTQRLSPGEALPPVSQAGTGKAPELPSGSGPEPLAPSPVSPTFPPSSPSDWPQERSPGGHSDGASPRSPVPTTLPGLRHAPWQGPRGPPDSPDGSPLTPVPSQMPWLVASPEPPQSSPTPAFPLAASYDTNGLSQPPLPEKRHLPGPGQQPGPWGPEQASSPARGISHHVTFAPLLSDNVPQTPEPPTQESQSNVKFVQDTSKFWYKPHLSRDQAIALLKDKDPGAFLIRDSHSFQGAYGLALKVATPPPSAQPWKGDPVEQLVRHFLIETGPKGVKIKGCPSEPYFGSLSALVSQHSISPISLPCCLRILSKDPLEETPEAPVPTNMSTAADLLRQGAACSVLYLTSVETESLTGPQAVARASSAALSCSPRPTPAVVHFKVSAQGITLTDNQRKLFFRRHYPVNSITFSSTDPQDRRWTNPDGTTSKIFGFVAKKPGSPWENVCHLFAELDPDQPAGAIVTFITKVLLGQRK
Protocol: According to the above results, it was confirmed that TENC1 overexpressed in a high glucose environment known as a leading cause of diabetic nephropathy inhibits phosphorylation of nephrin caused by dephosphorylation, and induces hypertrophy of the podocyte cell line. For this reason, to inhibit the hypertrophy of the podocyte cell line, screening was performed through a Malachite Green assay for finding a TENC1 inhibitor.
TENC1 protein isolated from the cells and each of the natural product library candidate compounds were put together for a predetermined time, and the PTPase activity of TENC1 was measured. […] Here, as a positive control, a PTPase inhibitor, sodium vanadate (Na3VO4; NAV) was used. Since there were almost no molecules left in the test tube, the method has a higher probability of discovering a direct regulator, compared with a cellular-level screening method.

mTORC1 signaling = mTORC1 signaling (S6K phosphorylation) in kidney tissue of db/db mouse (western blotting); assay type: in vivo; details: 300 mg/kg orally daily for 2 weeks, FIG. 13
Protocol: as §1
(§2) Further, to investigate whether the above result is obtained by inhibiting TENC1-induced nephrin dephosphorylation and increased mTORC1 signaling, immunoprecipitation and western blotting were performed with a kidney tissue sample extracted from a mouse.

differentiated podocyte = assay: Filtration function of differentiated podocyte under high glucose (protein quantification); assay type: cell-based; details: high glucose condition of 30 mmol/L vs normal glucose 5 mmol/L; FIG. 11B
nephrin = assay: Nephrin phosphorylation in kidney tissue of db/db mouse (immunoprecipitation); assay type: in vivo; details: 300 mg/kg orally daily for 2 weeks, FIG. 12
Protocol: as §1, §2

With `Cc1cccc2c3c(ccc12)C1=C(C(=O)C3=O)[C@@H](C)CO1` [DHTS, (1R)-1,6-dimethyl-1,2-dihydronaphtho[1,2-g][1]benzofuran-10,11-dione] the “fasting serum glucose level” value (db/db mouse; FIG. 9) was “not decreased”, the “proteinuria (albumin ELISA)” value (db/db mouse; compared with vehicle db/db mouse, FIG. 11A) was “significantly reduced” and the “kidney weight (renal hypertrophy; ratio of kidney weight to body weight)” value (db/db mouse; vs vehicle db/db and db/m, FIG. 10) was “such an increase was not shown”. The “inhibitory effect on the PTPase activity of TENC1” value (TENC1) was “inhibitory effect”, the “S6K phosphorylation (pS6K) in kidney tissue” value (mTORC1 signaling) was “effectively inhibited” and the “filtration function of the podocyte” value (differentiated podocyte) was “improved to a level similar to the result obtained under a the normal glucose condition”. For the same molecule, the “nephrin phosphorylation in kidney tissue” value (nephrin) was “recovered”.

— patent US20160361288A1, “PHARMACEUTICAL COMPOSITIONS FOR PREVENTING OR TREATING DIABETIC N[…] ACTIVITY INHIBITOR OF TENC1” (POSTECH ACADEMY-INDUSTRY FOUNDATION, priority 2015, published 2016)
